Holding throughout (format): in vivo
Assay [1] relates to brown planthopper (Nilaparvata lugens). The assay is described as follows: Nilaparvata lugens spray test. As to conditions: 96 h, after 4 days, rice plants; for mortality at 100 g/ha: application rate 100 g/ha. A digest of the protocol: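 Rice plants sprayed with compound diluted in water containing 1000 ppm emulsifier, then infested with brown planthopper. Mortality (%) scored after 4 days, 100% meaning all insects killed.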

Assay [2] relates to adult mosquitoes Anopheles funestus strain FUMOZ-R. The assay is described as follows: Anopheles funestus test (ANPHFU surface treatment & contact assay). As to conditions: surface concentration 20 mg/m^2, exposure 30 minutes, 24 hours after contact, read-out: efficacy (mortality). The gist of the method: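 Compound dissolved in acetone (2 mg/ml) with 2000 ppm rapeseed oil methyl ester and applied to a glazed tile. After acetone evaporation, adult FUMOZ-R mosquitoes were exposed to the dried surface for 30 min. Percent mortality was scored 24 h after contact.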

Assay [3] has as its system adult mosquitoes Aedes aegypti strain MONHEIM. Briefly: Aedes aegypti test (AEDSAE surface treatment & contact assay). As to conditions: 24 hours after contact, read-out: efficacy (mortality); for mortality at 4 mg/m2: surface concentration 4 mg/m^2, exposure 30 minutes; for mortality at 20 mg/m2: surface concentration 20 mg/m^2, exposure 30 minutes. The gist of the method:
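Compound in acetone (2 mg/ml) with 2000 ppm RME dried onto glazed tile; adults exposed to the treated surface for 30 min. Percent mortality scored 24 h after contact.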

Assay [4] has as its system cattle ticks (Rhipicephalus microplus) strain Parkhurst, SP-resistant. The assay is described as follows: Rhipicephalus (Boophilus) microplus dip test. Conditions: 168 h, application rate 100 ppm, egg deposition after 7 days, read-out: activity (efficacy: infertile eggs). As to the method:
Rhipicephalus (Boophilus) microplus—Dip Test
Test animal: cattle ticks (Rhipicephalus microplus) strain Parkhurst, SP-resistant
Solvent: dimethyl sulfoxide
To produce a suitable preparation of active compound, 10 mg of active compound are dissolved in 0.5 mL solvent, and the concentrate is diluted with water to the desired concentration.
This compound solution is pipetted into tubes. 8-10 engorged, adult, female cattle ticks (Rhipicephalus microplus) are placed in perforated tubes. These tubes are immersed in the aqueous compound solution until the ticks are completely moistened. After the liquid has drained off, the ticks are transferred to a filter paper in a plastic tray and stored in a climate chamber.
After 7 days egg deposition of fertile eggs is monitored. Eggs where fertility is not visible are stored in a climate chamber till hatching after about 42 days. An efficacy of 100% means all eggs are infertile; 0% means all eggs are fertile.

For assay [5], the system named is two spotted spidermite (Tetranychus urticae). The assay is described as follows: Tetranychus urticae spray test OP-resistant. As to conditions: foliar, 144 h, application rate 100 g/ha, after 6 days, French bean leaf disks. As to the method: Tetranychus urticae—Spray Test OP-Resistant
To produce a suitable preparation of active compound, 1 part by weight of active compound is mixed with the stated amount of solvents and is diluted with water, containing an emulsifier concentration of 1000 ppm, to the desired concentration. Further test concentrations are prepared by dilution with emulsifier containing water.
French bean (Phaseolus vulgaris) leaf disks infected with all instars of the two spotted spidermite (Tetranychus urticae) are sprayed with a preparation of the active ingredient of the desired concentration.
After 6 days mortality in % is determined. 100% means all spider mites have been killed and 0% means none of the spider mites have been killed.

Assay [6] relates to green peach aphid (Myzus persicae). Briefly: Myzus persicae spray test. As to conditions: foliar, 120 h, after 5 days, Chinese cabbage leaf disks; for mortality at 100 g/ha: application rate 100 g/ha, read-out: activity (mortality). A digest of the protocol: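 Chinese cabbage leaf disks infested with all aphid instars were sprayed with compound diluted in water containing emulsifier (1000 ppm). Mortality (%) was scored after 5 days, 100% meaning all aphids killed.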

Assay [7] concerns fall armyworm larvae (Spodoptera frugiperda). Briefly: Spodoptera frugiperda spray test. As to conditions: 168 h, application rate 100 g/ha, after 7 days, maize leaf sections. The gist of the method: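 Caterpillars are placed on sprayed, dried maize leaf sections. Sprays contain compound diluted in water with emulsifier at 1000 ppm; mortality in % is determined 7 days later.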

Assay [8] deals with adult engorged female ticks (Rhipicephalus microplus). The assay is described as follows: Rhipicephalus (Boophilus) microplus injection test. As to conditions: 168 h, application rate 4 μg/tick, egg deposition after 7 days, read-out: activity (efficacy: infertile eggs). The gist of the method: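 Efficacy is scored from egg fertility, with 100% meaning every egg infertile and 0% every egg fertile. Five engorged females per test received 1 μL DMSO solution abdominally. Eggs of unclear fertility were kept until hatching, about 42 days.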

Assay [9] relates to adult Blattella germanica strain PAULINIA
The assay is described as follows: whole plant or invertebrate. As to conditions: read-out: efficacy (mortality). As to the method: Blattella germanica Test (BLTTGE Surface Treatment & Contact Assay)
Solvent: Aceton+2000 ppm rapeseed oil methyl ester (RME) In order to produce a sufficient, active ingredient containing solution it is necessary to solve the test compound in the solvent-mix (acetone at 2 mg/ml/RME 2000 ppm). This solution is pipetted onto a glazed tile and after evaporation of the acetone, adult animals of the species Blattella germanica strain PAULINIA are placed onto the dried surface. The exposure time is 30 minutes.
Mortality in percent (%) is determined 24 hours after contact of the insects to the treated surface. 100% mortality means that all tested insects are dead, whereas 0% means that no insect died.

One may read the mortality as the share of the test organisms that died. Turning to `C[C@H](NC(=O)c1cc(C(F)(F)F)cc(C(F)(F)F)c1)c1ncnn1-c1ccc(C(=O)N2CCOCC2)cn1` [Example I-2], the mortality at 100 g/ha was 90% in assay [1], 90% in assay [5], 100% in [6] and 100% in assay [7]. The mortality at 500 g/ha in [1] (application rate 500 g/ha) and in assay [6] (application rate 500 g/ha) was 100% in each case. In addition, the mortality at 20 mg/m2 in assay [2] and in [3] was 80 to 100% each time. Further, in assay [3], the mortality at 4 mg/m2 was 80 to 100%. Moreover, the pest or weed control at 100 ppm in [4] is 100%. In addition, the pest or weed control at 0.004 mg in [8] stood at 100%.

In the case of `CC1CN(C(=O)c2ccc(-n3ncnc3[C@H](C)NC(=O)c3cc(C(F)(F)F)cc(C(F)(F)F)c3)nc2)CC(C)O1` (stereo partly drawn) [Example I-5], the mortality at 100 g/ha in [1] stood at 90%; in assay [5] it was 90%; in [6] it was 100%; in assay [7] it was 100%. Moreover, the mortality at 20 mg/m2 in assay [2] and in assay [3] was 80 to 100% throughout. The mortality at 4 mg/m2 in [3] was 80 to 100%. The pest or weed control at 100 ppm in assay [4] was found to be 100%. Moreover, in assay [8], the pest or weed control at 0.004 mg turned out to be 100%.

In the case of `Cc1nc([C@H](C)NC(=O)c2cc(C(F)(F)F)cc(C(F)(F)F)c2)n(-c2ccc(C(=O)N3CCOCC3)cn2)n1` [Example I-9, N-[(1S)-1-{3-methyl-1-[5-(morpholin-4-ylcarbonyl)pyridin-2-yl]-1H-1,2,4-triazol-5-yl}ethyl]-3,5-bis(trifluoromethyl)benzamide], the mortality at 20 mg/m2 in [9], in [2] and in [3] was 80 to 100% each time. Besides, the mortality at 100 g/ha in assay [1], in assay [5], in [6] and in assay [7] was 100% throughout. Further, the mortality at 4 mg/m2 in assay [3] was 80 to 100%. Further, the pest or weed control at 100 ppm in [4] came to 100%. In addition, the pest or weed control at 0.004 mg in assay [8] worked out at 100%.

Values taken from US20230058623A1, “NOVEL HETEROARYL-TRIAZOLE COMPOUNDS AS PESTICIDES” (Bayer Aktiengesellschaft, priority 2019, published 2023).
